# Test results from patent publication US4812409A, “Hydrolyzable fluorescent substrates and analytical determinations using same” (Eastman Kodak Company, priority 1986, dated 1989).
# Legend:
# white blood cells = assay: Determination of esterase activity in white blood cells; format: cell-based; conditions: pH 7.5, ex 540 nm, em 620 nm
# Experimental: Leucocyte-rich layers (buffy coats) were purified from blood of healthy adult donors (taken in ACD tubes*) by adding 1.5 ml of Dextran T70 (6% in balanced salt solution), purchased from Pharmacia Fine Chemical (Piscataway, N.J., U.S.A.), to a 10 ml tube of blood. The tubes were allowed to set for one hour, then the plasma layer was transferred to sterile 15 ml centrifuge tubes, and the tubes were filled up to 7.5 ml with PBS solution (8.5 g sodium chloride in 0.05 molar potassium phosphate buffer, pH 7.5). The tubes were centrifuged at 1000 RPM for 10 minutes. The resulting cell pellet was resuspended in 10 ml lysing solution [0.83 g ammonium chloride, 0.1 g sodium bicarbonate and 0.003 g (ethylenedinitrilo)tetraacetic acid disodium salt in 100 ml of water, pH 7.2], and the tubes were allowed to set until the solution cleared. The tubes were again centrifuged, and the pellet was washed and resuspended in PBS. Cells were counted and adjusted to about 10^6 cells/ml.
# Three milliliters of various concentrations of white blood cells in potassium phosphate buffer (0.05 molar, pH 7.5) were mixed with 10 μl of the substrate of Example 3 ([…]), and the relative fluorescence was measured at an excitation wavelength of 540 nm and a maximum emission wavelength of 620 nm.
# diacetinase = assay: Solution determination of an esterase enzyme; format: biochemical; conditions: pH 7.5, 25° C.; for Relative Fluorescence, Test Cell: ex 540 nm, em 620 nm
# Experimental: A buffered solution of the substrate was prepared as follows. The substrate in N,N-dimethylformamide (16 mg/ml solvent) was added to 500 μl TRITON X-100 surfactant, and the resulting solution was added slowly to 25 ml potassium phosphate buffer (0.05 molar, pH 7.5) with stirring. Three milliliters of the buffered solution containing the substrate was placed in each of two quartz cells. To one cell was added 10 μl of a solution containing diacetinase (0.218 I.U. diacetinase per μl of potassium phosphate buffer, pH 7.5). The second cell was the Control. The relative fluorescence of each cell solution was measured at various times with a commercially available Perkin-Elmer fluorometer (excitation, 540 nm, maximum emission, 620 nm) at pH 7.5 and 25° C.
# [1] = system: carboxy esterase (Esterase, Type II); assay: Determination of esterase activity in a dry analytical element; format: biochemical; conditions: filter paper element; 10 μl of 10 μg/ml esterase, pH 7.5; 1 minute incubation at 37° C.
# Experimental: A strip of Whatman No. 2 filter paper (VWR Scientific Co., Rochester, N.Y., U.S.A.) was immersed in a solution of the substrate in methanol (3 mg in 0.5 ml). The paper was then allowed to dry at 37° C. for two hours.
# A carboxy esterase (Esterase, Type II, 100 I.U./mg protein from Sigma Chemical Co., St. Louis, Mo., U.S.A.) was dissolved in 0.05 molar potassium phosphate buffer (pH 7.5), 10 μg/ml of buffer. A sample (10 μl) of this solution was applied to the filter paper and the sample came into contact with the substrate therein. A Control solution containing only buffer was applied to a separate area of the element. After 1 minute incubation at 37° C., the element was visually examined.
smiles,measurement,setting,value
CC(=O)Oc1ccc2c3c(cccc13)C(=O)C=C2 [Example 3],Relative Fluorescence,"white blood cells; Sample 2, Cell Conc/μl 4.92 × 10^3, 0 Min",28.2
same,Relative Fluorescence,"white blood cells; Sample 2, Cell Conc/μl 4.92 × 10^3, 10 Min",37.1
same,Relative Fluorescence,"white blood cells; Sample 2, Cell Conc/μl 4.92 × 10^3, 15 Min",42.6
same,Relative Fluorescence,"white blood cells; Sample 2, Cell Conc/μl 4.92 × 10^3, 30 Min",60.4
same,Relative Fluorescence,"white blood cells; Sample 3, Cell Conc/μl 4.92 × 10^4, 0 Min",23.2
same,Relative Fluorescence,"white blood cells; Sample 3, Cell Conc/μl 4.92 × 10^4, 10 Min",41.7
same,Relative Fluorescence,"white blood cells; Sample 3, Cell Conc/μl 4.92 × 10^4, 15 Min",48.8
same,Relative Fluorescence,"white blood cells; Sample 3, Cell Conc/μl 4.92 × 10^4, 30 Min",70.3
same,Relative Fluorescence,"white blood cells; Sample 4, Cell Conc/μl 4.92 × 10^5, 0 Min",25.6
same,Relative Fluorescence,"white blood cells; Sample 4, Cell Conc/μl 4.92 × 10^5, 10 Min",69.0
same,Relative Fluorescence,"white blood cells; Sample 4, Cell Conc/μl 4.92 × 10^5, 15 Min",85.0
same,Relative Fluorescence,"white blood cells; Sample 4, Cell Conc/μl 4.92 × 10^5, 30 Min",124.0
same,"Relative Fluorescence, Test Cell",diacetinase; 0 min,134
same,"Relative Fluorescence, Test Cell",diacetinase; 0.5 min,142
same,"Relative Fluorescence, Test Cell",diacetinase; 1.0 min,150
same,"Relative Fluorescence, Test Cell",diacetinase; 3.0 min,161
same,"Relative Fluorescence, Test Cell",diacetinase; 5.0 min,175
same,"Relative Fluorescence, Test Cell",diacetinase; 7.0 min,202
same,"Relative Fluorescence, Test Cell",diacetinase; 10.0 min,238
same,"Relative Fluorescence, Test Cell",diacetinase; 15.0 min,266
same,Generation of fluorescence in the cell containing the esterase enzyme (in words),diacetinase,rapid generation of fluorescence
same,Colour of element area contacted with esterase enzyme (visual examination),[1],bright orange
